Tests used:
[1] = molecular target: cGMP-specific 3',5'-cyclic phosphodiesterase (Canis lupus familiaris, UniProt O77746); experiment: Inhibition of canine lung PDE5 using [3H]cGMP substrate by radiolabeled nucleotide method
[2] = Inhibition of light activated bovine retina PDE6 using [3H]cGMP substrate by radiolabeled nucleotide method; parameters: species or system Bos taurus
[3] = molecular target: cGMP-specific 3',5'-cyclic phosphodiesterase (Homo sapiens, UniProt O76074); experiment: Inhibition of PDE5 (unknown origin)
[4] = Selectivity index, ratio of IC50 for light activated bovine retina PDE6 to IC50 for PDE5 (unknown origin)
[5] = Selectivity index, ratio of IC50 for trypsin activated bovine retina PDE6 to IC50 for PDE5 (unknown origin)
[6] = Selectivity index, ratio of IC50 for light activated bovine retina PDE6 to IC50 for canine lung PDE5
[7] = tested on: Corpus cavernosum; experiment: Relaxant activity in rabbit corpus cavernosum assessed as reduction in phenyepinephrine-induced contraction; assay type: functional, tissue-based; settings: Oryctolagus cuniculus

Compound | IC50 [1] | IC50 [2] | IC50 [3] | Ratio IC50 [4] | Ratio IC50 [5] | Ratio IC50 [6] | EC50 [7]
COC(=O)c1nc(N2CCC(O)CC2)c2cc(OCc3ccccc3)ccc2c1-c1cc(OC)c(OC)c(OC)c1 | 2 nM | 590 nM |  |  |  |  | 
COC(=O)c1c(-c2cc(OC)c(OC)c(OC)c2)c2ccc(OCc3ccccn3)cc2c(=O)n1-c1ccc(N)cc1 |  |  | 1 nM | 650 | 32 |  | 
COc1ccc(CNc2nc(N3CCCCC3)ncc2C(=O)c2cc(OC)c(OC)c(OC)c2)cc1Cl | 0.74 nM |  |  |  |  | 2000 | 
COc1ccc(CN(C)c2nc(OCc3ccccn3)ncc2C(=O)c2cc(OC)c(OC)c(OC)c2)cc1Cl | 5 nM |  |  |  |  |  | 
COc1ccc(CNc2nc(OCc3ccccc3)ncc2C(=O)c2cc(OC)c(OC)c(OC)c2)cc1Cl | 0.38 nM |  |  |  |  | 1600 | > 100 nM
COC(=O)c1ncc2cc(OCc3ccccn3)ccc2c1-c1cc(OC)c(OC)c(OC)c1 | 34 nM | > 10000 nM |  |  |  |  | 
COc1ccc(CNc2nc(N3CCOC(CO)C3)ncc2C(=O)c2cc(OC)c(OC)c(OC)c2)cc1Cl (stereo not given) | 1.8 nM |  |  |  |  | 2800 | 11 nM
COc1ccc(CNc2nc(N3CCc4ccccc4C3)ncc2C(=O)c2cc(OC)c(OC)c(OC)c2)cc1Cl | 0.053 nM |  |  |  |  | 3200 | > 100 nM
COc1ccc(COc2nc(OCc3ccccn3)ncc2C(=O)c2cc(OC)c(OC)c(OC)c2)cc1Cl | 1.5 nM |  |  |  |  |  | 
COc1ccc(CNc2nc(N(C)CCO)ncc2C(=O)c2cc(OC)c(OC)c(OC)c2)cc1Cl | 2.7 nM |  |  |  |  | > 3700 | 29 nM
COC(=O)c1nc(NCc2ccc(OC)c(Cl)c2)c2cc(OCc3ccccc3)ccc2c1-c1cc(OC)c(OC)c(OC)c1 | 3.5 nM | > 10000 nM |  |  |  |  | 

Continued, values first:

IC50 [1] | IC50 [2] | IC50 [3] | Ratio IC50 [4] | Ratio IC50 [5] | Ratio IC50 [6] | EC50 [7] | Compound
0.13 nM |  |  |  |  | 2400 | 53 nM | COc1ccc(CNc2nc(OCc3ccccn3)ncc2C(=O)c2cc(OC)c(OC)c(OC)c2)cc1Cl
1.5 nM |  |  |  |  | 6700 | > 100 nM | COc1ccc(CNc2nc(N3CCOCC3)ncc2C(=O)c2cc(OC)c(OC)c(OC)c2)cc1Cl
1.7 nM |  |  |  |  | 2200 | 10 nM | COCCOc1ncc(C(=O)c2cc(OC)c(OC)c(OC)c2)c(NCc2ccc(OC)c(Cl)c2)n1
0.66 nM |  |  |  |  | 18000 | > 100 nM | COc1ccc(CNc2cc(OCc3ccccn3)ccc2C(=O)c2cc(OC)c(OC)c(OC)c2)cc1Cl
3.4 nM |  |  |  |  | 560 | 3.1 nM | COc1ccc(CNc2nc(OCc3ncccn3)ncc2C(=O)c2cc(OC)c(OC)c(OC)c2)cc1Cl

— ChEMBL document CHEMBL3352246, “Design and synthesis of novel 5-(3,4,5-trimethoxybenzoyl)-4-aminopyrimidine derivatives as potent and selective phosphodiesterase 5 inhibitors: scaffold hopping using a pseudo-ring by intramolecular hydrogen bond formation” (Bioorg Med Chem Lett, 2014)
